Experimental data as given in patent publication US8415469B2, “Compounds and methods for kinase modulation, and indications therefor” (Plexxikon Inc., priority 2005, dated 2013).

How the values were obtained:
Type in all cases: biochemical
B-Raf = molecular target: T1, B-Raf (Homo sapiens, UniProt P15056); assay: AlphaScreen kinase assay, B-Raf; conditions: read-out: IC50, activity toward kinase B-Raf
T1 construct: purchased Upstate Biotechnology

FGFR1 = molecular target: T2, FGFR1 (Homo sapiens, UniProt P11362, C488A/C584S); assay: AlphaScreen kinase assay, FGFR1; conditions: read-out: IC50, activity toward kinase FGFR
T2 construct: P1351.pET N6 BI-PTP FGFR A458-E765-X C488A, C584S; made in house; host or cells: E. coli (PTP1B co-expressed)

MAP4K4 = MAP4K4 (Homo sapiens, UniProt O95819); assay: AlphaScreen kinase assay, MAP4K4; conditions: read-out: IC50, activity toward kinase MAP4K4
Fms = molecular target: T3, Fms (Homo sapiens, UniProt P07333); assay: AlphaScreen kinase assay, Fms; conditions: read-out: IC50, activity toward kinase Fms
T3 construct: purchased Upstate Biotechnology

Kit = molecular target: T4, Kit (Homo sapiens, UniProt P10721); assay: AlphaScreen kinase assay, Kit; conditions: read-out: IC50, activity toward kinase Kit
T4 construct: P1332.N6 BI PTP KIT M552-K948-X COD; His6 (N); made in house; host or cells: E. coli (PTP1B co-expressed)

B-Raf V600E = molecular target: T5, B-Raf V600E (Homo sapiens, UniProt P15056, V600E); assay: AlphaScreen kinase assay, B-Raf V600E; conditions: read-out: IC50, activity toward kinase B-Raf V600E
T5 construct: P4254. pFastBacBD-CDC37 BRAF D437-K722-X, V600E; His6 with pFastBac HT leader (TEV site) (N); made in house; host or cells: Sf9 (baculovirus; chaperone CDC37 co-expressed)

Flt1 = molecular target: T6, Flt1 (Homo sapiens, UniProt P17948); assay: AlphaScreen kinase assay, Flt1; conditions: read-out: IC50, activity toward kinase Flt1
T6 construct: P1826.pETN6 BI-PTP FLT1 M799-D1165-X WT; His6 (N); made in house; host or cells: E. coli (PTP1B co-expressed)
T6 sequence (P17948 with tags, fused parts or gaps): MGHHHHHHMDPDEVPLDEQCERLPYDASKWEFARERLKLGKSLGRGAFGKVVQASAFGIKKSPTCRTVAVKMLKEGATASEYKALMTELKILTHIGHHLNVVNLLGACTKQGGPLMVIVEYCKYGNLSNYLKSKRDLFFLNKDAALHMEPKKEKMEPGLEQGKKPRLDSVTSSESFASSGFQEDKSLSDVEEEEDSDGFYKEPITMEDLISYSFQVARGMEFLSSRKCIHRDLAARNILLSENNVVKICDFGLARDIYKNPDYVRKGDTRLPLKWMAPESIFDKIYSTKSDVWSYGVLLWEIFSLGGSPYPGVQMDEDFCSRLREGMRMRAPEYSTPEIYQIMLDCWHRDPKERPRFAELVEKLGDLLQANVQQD

Src = molecular target: T7, Src (Homo sapiens, UniProt P12931); assay: AlphaScreen kinase assay, Src; conditions: read-out: IC50, activity toward kinase Src
T7 construct: P1144. pET-N6 BI-PTP SRC V86-L536-X; made in house

Fak = molecular target: T8, Fak (Homo sapiens, UniProt Q05397); assay: AlphaScreen kinase assay, Fak; conditions: read-out: IC50, activity toward kinase Fak
T8 construct: P1358.pFastBacHtb FAK S411-Q686-X; His6 with pFastBacHTb leader (TEV site) (N); made in house; host or cells: Sf9 (baculovirus)

Kdr = molecular target: T9, Kdr (Homo sapiens, UniProt P35968); assay: Z'-Lyte FRET kinase assay (Invitrogen), Kdr; conditions: read-out: IC50, activity toward kinase Kdr
T9 construct: purchased Invitrogen (assay run by Invitrogen)

Stk6 = molecular target: T10, Stk6 (Homo sapiens, UniProt O14965); assay: Z'-Lyte FRET kinase assay (Invitrogen), Stk6; conditions: read-out: IC50, activity toward kinase Stk6
T10 construct: purchased Invitrogen (Carlsbad, Calif.), screening service
T10 sequence (O14965 1-403): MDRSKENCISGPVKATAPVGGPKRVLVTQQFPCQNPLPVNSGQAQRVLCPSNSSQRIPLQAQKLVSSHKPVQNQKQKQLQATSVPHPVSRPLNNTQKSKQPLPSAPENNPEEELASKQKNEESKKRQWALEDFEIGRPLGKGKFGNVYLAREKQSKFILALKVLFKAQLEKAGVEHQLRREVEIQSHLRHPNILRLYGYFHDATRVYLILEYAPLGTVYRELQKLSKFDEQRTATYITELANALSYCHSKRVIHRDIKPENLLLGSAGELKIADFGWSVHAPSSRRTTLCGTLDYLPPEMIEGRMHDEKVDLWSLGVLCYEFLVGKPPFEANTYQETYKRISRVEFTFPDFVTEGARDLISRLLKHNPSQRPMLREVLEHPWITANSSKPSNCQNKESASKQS

Jnk3 = molecular target: T11, Jnk3 (Homo sapiens, UniProt P53779); assay: AlphaScreen kinase assay, Jnk3; conditions: read-out: IC50, activity toward kinase Jnk3
T11 construct: purchased Upstate Biotechnology

c-Raf-1 = molecular target: T12, c-Raf-1 (Homo sapiens, UniProt P04049); assay: AlphaScreen kinase assay, c-Raf-1; conditions: read-out: IC50, activity toward kinase c-Raf-1
T12 construct: purchased Upstate Biotechnology

Jnk1 = molecular target: T13, Jnk1 (Homo sapiens, UniProt P45983); assay: AlphaScreen kinase assay, Jnk1; conditions: read-out: IC50, activity toward kinase Jnk1
T13 construct: purchased Upstate Biotechnology

T1 sequence (P15056 whole entry): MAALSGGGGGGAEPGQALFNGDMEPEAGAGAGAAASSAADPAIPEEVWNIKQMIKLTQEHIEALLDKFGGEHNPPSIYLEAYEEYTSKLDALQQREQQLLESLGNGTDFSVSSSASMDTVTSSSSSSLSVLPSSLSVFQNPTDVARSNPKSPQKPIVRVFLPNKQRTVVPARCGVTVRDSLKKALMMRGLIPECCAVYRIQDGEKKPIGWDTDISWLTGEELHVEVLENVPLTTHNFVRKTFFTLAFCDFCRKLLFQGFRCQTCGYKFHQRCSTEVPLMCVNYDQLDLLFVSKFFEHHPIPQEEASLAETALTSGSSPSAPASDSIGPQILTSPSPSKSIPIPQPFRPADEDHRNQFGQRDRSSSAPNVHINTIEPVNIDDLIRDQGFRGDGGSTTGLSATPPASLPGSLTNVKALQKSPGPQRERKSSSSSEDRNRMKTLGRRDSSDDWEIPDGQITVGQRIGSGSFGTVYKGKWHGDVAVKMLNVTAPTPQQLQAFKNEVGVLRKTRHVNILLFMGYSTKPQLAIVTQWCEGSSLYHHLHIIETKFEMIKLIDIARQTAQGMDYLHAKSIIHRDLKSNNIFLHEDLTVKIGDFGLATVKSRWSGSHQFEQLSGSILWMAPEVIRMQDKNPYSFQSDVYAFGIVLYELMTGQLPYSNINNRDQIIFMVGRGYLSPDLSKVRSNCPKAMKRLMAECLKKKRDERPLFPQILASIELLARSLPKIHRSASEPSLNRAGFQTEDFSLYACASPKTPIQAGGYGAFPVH
T7 sequence (P12931 with tags, fused parts or gaps): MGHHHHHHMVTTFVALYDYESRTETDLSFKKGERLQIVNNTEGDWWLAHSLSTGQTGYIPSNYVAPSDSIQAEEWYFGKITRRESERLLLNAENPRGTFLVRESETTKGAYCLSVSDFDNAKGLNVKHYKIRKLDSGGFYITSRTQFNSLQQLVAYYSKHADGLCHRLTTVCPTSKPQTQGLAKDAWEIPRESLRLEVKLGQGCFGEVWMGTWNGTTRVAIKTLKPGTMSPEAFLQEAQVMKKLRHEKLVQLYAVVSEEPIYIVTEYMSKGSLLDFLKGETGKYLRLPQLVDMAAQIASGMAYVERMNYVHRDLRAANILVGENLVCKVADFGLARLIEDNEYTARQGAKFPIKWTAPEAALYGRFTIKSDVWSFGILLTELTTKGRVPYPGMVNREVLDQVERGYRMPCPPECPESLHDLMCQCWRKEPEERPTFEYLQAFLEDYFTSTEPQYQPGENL
T8 sequence (Q05397 411-686): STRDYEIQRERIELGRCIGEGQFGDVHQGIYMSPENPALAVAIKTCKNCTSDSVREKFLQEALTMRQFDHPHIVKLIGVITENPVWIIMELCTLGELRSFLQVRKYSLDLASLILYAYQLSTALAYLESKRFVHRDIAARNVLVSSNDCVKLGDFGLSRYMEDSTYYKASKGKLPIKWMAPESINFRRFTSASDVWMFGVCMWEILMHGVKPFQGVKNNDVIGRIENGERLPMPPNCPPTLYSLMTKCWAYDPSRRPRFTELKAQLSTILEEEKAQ
T9 sequence (P35968 20-1356): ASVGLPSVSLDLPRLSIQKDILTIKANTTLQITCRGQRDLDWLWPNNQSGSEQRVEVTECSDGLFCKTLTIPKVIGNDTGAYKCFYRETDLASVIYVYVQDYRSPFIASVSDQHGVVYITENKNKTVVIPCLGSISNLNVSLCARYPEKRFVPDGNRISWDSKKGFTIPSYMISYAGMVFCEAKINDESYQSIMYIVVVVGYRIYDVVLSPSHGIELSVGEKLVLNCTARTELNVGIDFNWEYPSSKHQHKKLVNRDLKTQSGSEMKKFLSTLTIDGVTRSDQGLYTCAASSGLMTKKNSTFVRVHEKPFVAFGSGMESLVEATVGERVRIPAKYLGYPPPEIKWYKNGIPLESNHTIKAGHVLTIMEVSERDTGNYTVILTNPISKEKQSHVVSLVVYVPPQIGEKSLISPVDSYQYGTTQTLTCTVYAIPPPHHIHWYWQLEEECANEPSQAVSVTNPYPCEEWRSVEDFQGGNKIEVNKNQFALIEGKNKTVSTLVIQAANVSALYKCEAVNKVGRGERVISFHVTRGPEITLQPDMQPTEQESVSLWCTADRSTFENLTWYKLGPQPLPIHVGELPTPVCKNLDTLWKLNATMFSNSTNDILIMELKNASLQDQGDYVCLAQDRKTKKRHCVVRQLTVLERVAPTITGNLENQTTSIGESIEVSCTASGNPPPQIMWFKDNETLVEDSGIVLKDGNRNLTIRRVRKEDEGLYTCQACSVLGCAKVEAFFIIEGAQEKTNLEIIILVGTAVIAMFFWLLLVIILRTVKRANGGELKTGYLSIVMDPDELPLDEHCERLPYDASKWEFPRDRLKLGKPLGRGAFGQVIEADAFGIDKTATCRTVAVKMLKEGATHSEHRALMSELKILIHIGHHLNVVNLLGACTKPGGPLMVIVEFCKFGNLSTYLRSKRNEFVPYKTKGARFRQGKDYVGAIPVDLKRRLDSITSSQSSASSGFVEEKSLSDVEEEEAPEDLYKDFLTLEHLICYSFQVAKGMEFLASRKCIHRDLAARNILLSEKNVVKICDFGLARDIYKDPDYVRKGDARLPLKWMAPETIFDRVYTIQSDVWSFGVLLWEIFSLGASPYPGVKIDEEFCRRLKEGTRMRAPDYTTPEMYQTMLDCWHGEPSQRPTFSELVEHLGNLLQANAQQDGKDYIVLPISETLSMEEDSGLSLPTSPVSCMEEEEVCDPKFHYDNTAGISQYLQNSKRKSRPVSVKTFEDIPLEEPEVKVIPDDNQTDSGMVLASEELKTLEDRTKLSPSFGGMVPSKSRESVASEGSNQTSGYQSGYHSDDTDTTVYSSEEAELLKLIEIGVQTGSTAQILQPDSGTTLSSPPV
T12 sequence (P04049 whole entry): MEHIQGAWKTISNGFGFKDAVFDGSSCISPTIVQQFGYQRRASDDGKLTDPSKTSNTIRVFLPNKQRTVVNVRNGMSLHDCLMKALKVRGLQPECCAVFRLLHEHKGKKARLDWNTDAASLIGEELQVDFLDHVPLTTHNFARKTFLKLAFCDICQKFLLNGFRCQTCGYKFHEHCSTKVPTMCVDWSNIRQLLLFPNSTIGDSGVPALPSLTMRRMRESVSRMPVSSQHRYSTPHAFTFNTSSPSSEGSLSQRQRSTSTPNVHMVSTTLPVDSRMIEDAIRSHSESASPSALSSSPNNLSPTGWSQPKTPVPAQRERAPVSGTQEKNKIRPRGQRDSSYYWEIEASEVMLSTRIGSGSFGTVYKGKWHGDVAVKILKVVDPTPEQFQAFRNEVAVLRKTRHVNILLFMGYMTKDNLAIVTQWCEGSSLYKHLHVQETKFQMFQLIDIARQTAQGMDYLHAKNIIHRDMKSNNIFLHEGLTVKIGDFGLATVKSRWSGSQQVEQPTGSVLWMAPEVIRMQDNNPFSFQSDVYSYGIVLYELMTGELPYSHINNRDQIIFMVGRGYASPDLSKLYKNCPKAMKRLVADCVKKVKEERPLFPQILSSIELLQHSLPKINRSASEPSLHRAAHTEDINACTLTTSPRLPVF
T5 sequence (P15056 with tags, fused parts or gaps V600E): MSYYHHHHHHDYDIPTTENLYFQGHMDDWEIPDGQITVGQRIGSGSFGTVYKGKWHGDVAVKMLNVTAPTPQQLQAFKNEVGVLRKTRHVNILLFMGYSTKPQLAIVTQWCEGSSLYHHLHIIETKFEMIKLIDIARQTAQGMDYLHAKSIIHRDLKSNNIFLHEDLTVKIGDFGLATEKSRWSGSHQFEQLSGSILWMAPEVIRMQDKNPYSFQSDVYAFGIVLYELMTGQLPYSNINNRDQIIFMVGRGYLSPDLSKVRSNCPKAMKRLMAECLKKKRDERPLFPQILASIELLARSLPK
Chain of MAP4K4 (O95819 whole entry): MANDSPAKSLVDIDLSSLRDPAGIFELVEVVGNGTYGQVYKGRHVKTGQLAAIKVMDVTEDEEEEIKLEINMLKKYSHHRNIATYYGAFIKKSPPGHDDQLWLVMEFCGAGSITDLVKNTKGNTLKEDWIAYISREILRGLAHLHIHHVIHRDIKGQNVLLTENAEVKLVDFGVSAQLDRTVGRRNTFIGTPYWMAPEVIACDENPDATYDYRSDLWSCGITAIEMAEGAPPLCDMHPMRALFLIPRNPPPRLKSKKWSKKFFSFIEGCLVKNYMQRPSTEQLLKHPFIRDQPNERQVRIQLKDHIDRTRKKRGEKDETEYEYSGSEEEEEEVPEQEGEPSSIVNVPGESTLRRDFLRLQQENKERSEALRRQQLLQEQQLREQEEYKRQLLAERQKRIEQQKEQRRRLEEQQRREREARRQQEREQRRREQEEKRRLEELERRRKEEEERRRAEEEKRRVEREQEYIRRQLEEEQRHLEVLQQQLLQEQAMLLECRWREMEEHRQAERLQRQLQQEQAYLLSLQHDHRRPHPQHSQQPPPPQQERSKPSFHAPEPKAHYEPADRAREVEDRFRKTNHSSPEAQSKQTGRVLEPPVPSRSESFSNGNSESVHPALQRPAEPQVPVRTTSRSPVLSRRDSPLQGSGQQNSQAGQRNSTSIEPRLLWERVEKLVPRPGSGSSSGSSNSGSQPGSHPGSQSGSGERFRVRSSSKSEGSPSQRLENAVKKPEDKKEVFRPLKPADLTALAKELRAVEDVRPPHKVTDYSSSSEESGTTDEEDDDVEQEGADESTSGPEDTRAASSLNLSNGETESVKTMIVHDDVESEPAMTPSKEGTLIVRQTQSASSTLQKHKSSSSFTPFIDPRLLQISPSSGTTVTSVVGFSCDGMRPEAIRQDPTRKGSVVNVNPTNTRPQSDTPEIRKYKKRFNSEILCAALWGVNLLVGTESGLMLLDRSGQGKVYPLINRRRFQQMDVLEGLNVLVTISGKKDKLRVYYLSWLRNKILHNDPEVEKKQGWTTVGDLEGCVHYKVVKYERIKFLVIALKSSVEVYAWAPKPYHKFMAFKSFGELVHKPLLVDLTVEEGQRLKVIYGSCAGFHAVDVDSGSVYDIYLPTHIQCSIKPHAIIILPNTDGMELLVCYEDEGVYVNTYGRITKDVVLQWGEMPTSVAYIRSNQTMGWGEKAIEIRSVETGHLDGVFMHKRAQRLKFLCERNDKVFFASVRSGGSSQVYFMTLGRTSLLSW

Compound	IC50 (B-Raf) [µM]	IC50 (FGFR1) [µM]	IC50 (MAP4K4) [µM]	IC50 (Fms) [µM]	IC50 (Kit) [µM]	IC50 (B-Raf V600E) [µM]	IC50 (Flt1) [µM]	IC50 (Src) [µM]	IC50 (Fak) [µM]	IC50 (Kdr) [µM]	IC50 (Stk6) [µM]	IC50 (Jnk3) [µM]	IC50 (c-Raf-1) [µM]	IC50 (Jnk1) [µM]
CS(=O)(=O)Nc1cccc(-c2cnc3[nH]cc(C(=O)c4cc(Cl)cc(Cl)c4)c3c2)c1 [Compound P-1429, N-{3-[3-(3,5-Dichloro-benzoyl)-1H-pyrrolo[2,3-b]pyridin-5-yl]-phenyl}-methanesulfonamide]	≤ 10	≤ 10	≤ 10	≤ 10	≤ 10	≤ 10	≤ 10							
COc1cc(OC)cc(C(=O)c2c[nH]c3ncc(-c4cccnc4)cc23)c1 [Compound P-1411, (3,5-Dimethoxy-phenyl)-(5-pyridin-3-yl-1H-pyrrolo[2,3-b]pyridin-3-yl)-methanone]		≤ 10	≤ 10	≤ 10	≤ 10	≤ 10	≤ 10		≤ 10					
c1cncc(-c2cnc3[nH]ccc3c2)c1 [Compound P-0176]			≤ 10		≤ 10					≤ 10	≤ 10	≤ 10		
O=C(O)/C=C/c1cccc(-c2cnc3[nH]cc(C(=O)c4cccc(OC(F)(F)F)c4)c3c2)c1 [Compound P-1417, (E)-3-{3-[3-(3-Trifluoromethoxy-benzoyl)-1H-pyrrolo[2,3-b]pyridin-5-yl]-phenyl}-acrylic acid]			≤ 10		≤ 10	≤ 10	≤ 10	≤ 10						
O=C(c1c(F)ccc(NS(=O)(=O)c2ccc(Cl)cc2)c1F)c1c[nH]c2ncccc12 [Compound P-0937, 4-Chloro-N-[2,4-difluoro-3-(1H-pyrrolo[2,3-b]pyridine-3-carbonyl)-phenyl]-benzenesulfonamide]	≤ 10	≤ 10	≤ 10		≤ 10	≤ 10							≤ 10	
COc1cccc(S(=O)(=O)Nc2ccc(F)c(C(=O)c3c[nH]c4ncccc34)c2F)c1 [Compound P-0971, N-[2,4-difluoro-3-(1H-pyrrolo[2,3-b]pyridine-3-carbonyl)phenyl]-3-methoxy-benzenesulfonamide]			≤ 10			≤ 10							≤ 10	
c1ccc(Sc2c[nH]c3ncccc23)nc1 [Compound P-0214]			≤ 10				≤ 10				≤ 10			
Clc1ncccc1Cc1c[nH]c2ncccc12 [Compound P-0317]			≤ 10	≤ 10							≤ 10			
O=C(O)c1ccc(F)c(C(=O)c2c[nH]c3ncc(-c4cccnc4)cc23)c1F [Compound P-1017]		≤ 10	≤ 10										≤ 10	
CCCC(=O)Nc1ccc(F)c(C(=O)c2c[nH]c3ncc(-c4cccnc4)cc23)c1F [Compound P-1279]	≤ 10	≤ 10	≤ 10	≤ 10	≤ 10	≤ 10	≤ 10		≤ 10			≤ 10	≤ 10	≤ 10
COc1cc(Nc2ccnc3[nH]ccc23)cc(OC)c1OC [Compound P-0909]	≤ 10		≤ 10										≤ 10	
O=C(c1c(F)ccc(NS(=O)(=O)c2ccc(C(F)(F)F)cc2)c1F)c1c[nH]c2ncccc12 [Compound P-0931, N-[2,4-Difluoro-3-(1H-pyrrolo[2,3-b]pyridine-3-carbonyl)-phenyl]-4-trifluoromethyl-benzenesulfonamide]	≤ 10		≤ 10	≤ 10	≤ 10	≤ 10							≤ 10	
COc1cccc(Cc2c[nH]c3ncc(-c4ccsc4)cc23)n1 [Compound P-0300]			≤ 10		≤ 10						≤ 10	≤ 10		
CCCS(=O)(=O)Nc1ccc(Cl)c(C(=O)c2c[nH]c3ncccc23)c1F [Compound P-0904, Propane-1-sulfonic acid [4-chloro-2-fluoro-3-(1H-pyrrolo[2,3-b]pyridine-3-carbonyl)-phenyl]-amide]	≤ 10	≤ 10	≤ 10			≤ 10							≤ 10	
O=C(c1c(F)cccc1F)c1c[nH]c2ncccc12 [Compound P-1685]		≤ 10	≤ 10	≤ 10	≤ 10				≤ 10					
CCCS(=O)(=O)Nc1cccc(C(=O)c2c[nH]c3ncccc23)c1F [Compound P-1056, propane-1-sulfonic acid [2-fluoro-3-(1H-1-pyrrolo[2,3-b]pyridine-3-carbonyl)-phenyl]-amide]	≤ 10		≤ 10			≤ 10							≤ 10	

The next lines start with the values.

IC50 (B-Raf) [µM]	IC50 (FGFR1) [µM]	IC50 (MAP4K4) [µM]	IC50 (Fms) [µM]	IC50 (Kit) [µM]	IC50 (B-Raf V600E) [µM]	IC50 (Flt1) [µM]	IC50 (Src) [µM]	IC50 (Fak) [µM]	IC50 (Kdr) [µM]	IC50 (Stk6) [µM]	IC50 (Jnk3) [µM]	IC50 (c-Raf-1) [µM]	IC50 (Jnk1) [µM]	Compound
≤ 10	≤ 10	≤ 10		≤ 10	≤ 10	≤ 10	≤ 10	≤ 10						NC(=O)c1cccc(-c2cnc3[nH]cc(C(=O)c4ccccc4OCc4ccccc4)c3c2)c1 [Compound P-1383]
		≤ 10							≤ 10	≤ 10				c1cnc2[nH]cc(Sc3ccncc3)c2c1 [Compound P-0131]
		≤ 10			≤ 10				≤ 10	≤ 10				COc1ccc(-c2cnc3[nH]cc(C#Cc4cccc(C(=O)O)c4)c3c2)cc1OC [Compound P-0174]
	≤ 10	≤ 10	≤ 10	≤ 10				≤ 10	≤ 10					COc1cc(Cc2c[nH]c3ncccc23)cc(OC)c1 [Compound P-0391]
		≤ 10						≤ 10						Cc1[nH]c2ncccc2c1-c1cccc(F)c1 [Compound P-0986]
≤ 10	≤ 10	≤ 10	≤ 10	≤ 10	≤ 10		≤ 10					≤ 10	≤ 10	CCCS(=O)(=O)Nc1ccc(F)c(C(=O)c2c[nH]c3ncc(N4CCOCC4)cc23)c1F [Compound P-0853, Propane-1-sulfonic acid [2,4-difluoro-3-(5-morpholin-4-yl-1H-pyrrolo[2,3-b]pyridine-3-carbonyl)-phenyl]-amide]
	≤ 10	≤ 10	≤ 10	≤ 10	≤ 10	≤ 10								O=C(c1cccc(OC(F)F)c1)c1c[nH]c2ncc(-c3cccnc3)cc12 [Compound P-1415, (3-Difluoromethoxy-phenyl)-(5-pyridin-3-yl-1H-pyrrolo[2,3-b]pyridin-3-yl)-methanone]
